Values quoted from earlier work, collected in publication PMC3519477, “Structures of the Human Poly (ADP-Ribose) Glycohydrolase Catalytic Domain Confirm Catalytic Mechanism and Explain Inhibition by ADP-HPD Derivatives” (PLoS ONE, 2012).

Experiments:
wild-type bPARG = target: wild-type bPARG; set-up: method as in PMID 15658938; settings: SPR with immobilized 8-AH-ADP-HPD; cited from earlier work
bPARG Glu728Asn mutant = settings: cited from earlier work
bPARG Glu708Asn mutant = settings: ref supplemental 2 (Patel et al., 2005); cited from earlier work
bPARG Asp738Asn mutant = settings: ref supplemental 2 (Patel et al., 2005); cited from earlier work
bPARG Glu756Asn mutant = test system: bPARG Glu756Asn mutant; set-up: method as in supplemental 2 (Patel et al., 2005); settings: ref supplemental 2 (Patel et al., 2005); cited from earlier work
bPARG Glu757Asn mutant = test system: bPARG Glu757Asn mutant; set-up: method as in supplemental 2 (Patel et al., 2005); settings: ref supplemental 2 (Patel et al., 2005); cited from earlier work
bPARG Tyr796Trp mutant = test system: bPARG Tyr796Trp mutant; set-up: method as in supplemental 6 (Koh et al., 2003); settings: ref supplemental 6 (Koh et al., 2003); cited from earlier work

In the case of 8-aminohexylaminoADP-HPD [8-AH-ADP-HPD], the Kd (wild-type bPARG) is given as 8.2 nM, the Kd (bPARG Glu728Asn mutant; bPARG Glu728Asn (E727N in hPARG), SPR with immobilized 8-AH-ADP-HPD) is given as 3.2 nM and the “increase in affinity versus wild-type” value (bPARG Glu728Asn mutant; bPARG Glu728Asn, ref supplemental 2 (Patel et al., 2005)) is given as 18% wild-type specific activity; 2.5-fold increase in affinity for 8-AH-ADP-HPD. For the same substance, the “increase in affinity versus wild-type” value (bPARG Glu708Asn mutant) was “No effect on catalytic activity; 2.5-fold increase in affinity for 8-AH-ADP-HPD”, the “decrease in affinity versus wild-type” value (bPARG Asp738Asn mutant) was “No detectable activity; 1.4-fold decrease in affinity for 8-AH-ADP-HPD” and the “increase in affinity versus wild-type” value (bPARG Glu756Asn mutant) was “No detectable activity; 8-fold increase in 8-AH-ADP-HPD affinity”. The “effect of mutation on affinity” value (bPARG Glu757Asn mutant) was “No detectable activity; no effect on 8-AH-ADP-HPD affinity” and the “effect of mutation on binding” value (bPARG Tyr796Trp mutant) was “Limited effect on catalytic activity and 8-AH-ADP-HPD binding”.
